Assay results: publication PMC4710522, “A Novel Triazolopyridine-Based Spleen Tyrosine Kinase Inhibitor That Arrests Joint Inflammation” (PLoS ONE, 2016)

Tests used:
[1] = test system: proinflammatory analytes in paw tissue; assay: inflammatory cytokines measured in the paw, rat CIA; type: in vivo; details: day 18; CC-509 all dose levels p<0.01; indomethacin p<0.05
Procedure: Following the last administration of CC-509, paw samples were collected and processed for cytokine and chemokine analysis (Aushon Biosciences, Billerica, MA). Briefly paws were snap-frozen and pulverized in liquid nitrogen followed by addition of cell signal lysis buffer in the presence of protease and phosphatase inhibitors (Sigma Chemicals, St. Louis, MO). Samples were homogenized on high speed for 30 seconds, incubated on ice for 20 minutes then sonicated at high intensity for 1 minute. Samples were spun at high speed and supernatants were collected for cytokine analysis.

[2] = test system: rat collagen-induced arthritis model; assay: rat collagen-induced arthritis (CIA) model, paw swelling; type: in vivo; details: Indomethacin 2 mg/kg oral, p<0.01
Procedure: Female Lewis rats (150 – 170g; Charles River Laboratories) were house standard shoebox cages, fed Harlan-Tekald diet and water ad libitum and maintained on a 12h light/dark cycle. For induction of arthritis rats were anesthetized with isofluorane and their entire dorsal area shaved. Rats were injected (intradermal) with 100 μl of equal volumes of collagen (Chrondrex, Redmond, WA) and IFA (Sigma Chemicals, St. Louis, MO) emulsion in 10 sites across the dorsal region. At disease onset 11 days following immunization animals were randomized into groups based on their ankle measurements and test article administration was initiated. Rats were dosed orally with vehicle (20% Captisol®), Indomethacin (Sigma Chemicals, St. Louis, MO, 2mg/kg) or CC-509 (15, 25mg/kg QD or 15mg/kg BID) in a dose volume of 5ml/kg. […] On the last day of the study animals were split into 2 cohorts and bleed twice via tail bleed under isofluorane anesthesia and a third terminal bleed following CO2 asphyxiation to obtain a time course of plasma compound exposure at 30minutes, 1, 2, 4, 8 and 24h after the last dose of CC-509.
For the TEL-Syk assay, the intensity values for the 700 and 800 channel were exported as text files in ActivityBase (IDBS, Guildford, UK) to derive the ratios that reflect kinase activity. For LAD2 experiments, enzyme activity values were exported as text files into ActivityBase to calculate “percent release” according to the formula: 100* supernatant OD405/ (supernatant OD405 + (pellet OD405*pellet dilution factor)). For the basophil and B-cells assays, flow cytometry data was exported from the FACS Array and processed using FloJo software package (TreeStar, Inc., Ashland, Oregon). For the JAK2 HEL and Ramos NFAT β-lactamase assays, the fluorescence values obtained at 460 nm and 530 nm were exported into ActivityBase to calculate response ratios. For the neutrophil, macrophage, KDR, and JAK1/3 assays, raw values were exported into ActivityBase to calculate percent inhibition. All IC50 calculations were generated using XLfit (IDBS, Guildford, UK) algorithm 205 within Excel. For PCA, the OD from the saline injected site was subtracted from the OD from the anti-DNP IgE injected site. Evans blue dye extravasation was expressed as mean ± SEM and % inhibition for the test article groups was normalized to the cromolyn positive control. For the CIA model paw measurements (left and right ankle diameter) were taken for each individual animal and averaged. The mean data from each group was plotted and either the AUC(day 11–18) or % inhibition on day 18 was calculated. Data is expressed as mean ± SEM of each group with n = 6–12. Statistical analysis was performed with Prism Graphpad using one-way ANOVA followed by Dunnett’s comparison using the vehicle group as the control or for measurements over time a 2 way ANOVA followed by a Dunnett’s multiple comparison test. Statistical significance was deemed as * = p<0.05, **p<0.01, ***p<0.001 and p<0.0001.

[3] = set-up: method as in PMID 19096013; details: chronic and refractory ITP; cited from earlier work
[4] = test system: Tel-Syk expressing BaF3 cells; assay: Tel-Syk BaF3 viability assay (growth factor-independent growth); type: cell-based, murine; details: Tel-Syk BaF3, absence of IL-3
Procedure: HEK293 T-REx™ (Life Technologies, Grand Island, NY) stably transfected with human TEL-Syk (cloned as described prior section DNA constructs) were plated on black poly-D-lysine coated 96-well plates (BD Biosciences, San Diego, CA) in culture media containing tetracycline-free fetal bovine serum (Clontech, MountainView, CA) for 16 hours in a tissue culture incubator. Tel-Syk expression was induced for 6 hours in fresh growth media containing 1 μg/ml tetracycline (Sigma Chemicals, St. Louis, MO). Plates were preincubated with CC-509 for 90 minutes, fixed immediately with 4% formaldehyde in 1X PBS for 20 min at room temperature, and washed/permeabilized 5-times with PBS containing 0.1% Triton X-100. Plates were blocked with Odyssey Blocking Buffer for 90 minutes at room temperature and incubated overnight at 4°C on a rotating platform with rabbit phospho-Syk (1:1000) and mouse V5 (1:2500) primary antibodies diluted in Odyssey Blocking Buffer. […] Viability of BaF/3 cells expressing Tel-Syk grown in the absence of murine IL-3 was measured using Cell-Titer Glo reagent (Promega, Madison, WI), as described by supplier.

[5] = test system: rat passive cutaneous anaphylaxis model; assay: rat passive cutaneous anaphylaxis (PCA) model; type: in vivo; details: positive control cromolyn 100 mg/kg IV, p<0.001
Procedure: On day 0, male CD-IGS rats (170 – 190g; Charles River Laboratories) were anesthetized with isofluorane, their dorsal region shaved and 50 μl Anti-DNP-IgE (Clone SPE-7, Sigma, St. Louis, MO) that had been diluted 1:1000 in saline was injected via the intradermal route at 3 individual spots along the right side of the back. Saline was injected via the intradermal route at 3 individual spots along the left side of the back as a sham control. Twenty-four hours later, 200 μl of BSA-DNP (Calbiochem, San Diego, CA), prepared (1 mg prepared in a 2% solution of Evans blue dye: Sigma Chemicals, St. Louis, MO) was injected via the IV route via the tail vein. Thirty minutes after the BSA-DNP challenge the experiment was terminated and skin samples from the middle of each injection site taken for Evans blue dye measurement at an OD measurement at 620nm on a plate reader following incubation (2h at 90°C) and homogenization in formamide (Sigma Chemicals, St. Louis, MO). Vehicle (20% Captisol® (Captisol), PO), the positive control (Cromolyn: Sigma Chemicals, St. Louis, MO 100mg/kg, 2mL/kg, IV) or CC0484509 (3 and 10mg/kg, PO) were dosed 1h prior to the IV challenge with BSA-DNP.
For the TEL-Syk assay, the intensity values for the 700 and 800 channel were exported as text files in ActivityBase (IDBS, Guildford, UK) to derive the ratios that reflect kinase activity. For LAD2 experiments, enzyme activity values were exported as text files into ActivityBase to calculate “percent release” according to the formula: 100* supernatant OD405/ (supernatant OD405 + (pellet OD405*pellet dilution factor)). For the basophil and B-cells assays, flow cytometry data was exported from the FACS Array and processed using FloJo software package (TreeStar, Inc., Ashland, Oregon). For the JAK2 HEL and Ramos NFAT β-lactamase assays, the fluorescence values obtained at 460 nm and 530 nm were exported into ActivityBase to calculate response ratios. For the neutrophil, macrophage, KDR, and JAK1/3 assays, raw values were exported into ActivityBase to calculate percent inhibition. All IC50 calculations were generated using XLfit (IDBS, Guildford, UK) algorithm 205 within Excel. For PCA, the OD from the saline injected site was subtracted from the OD from the anti-DNP IgE injected site. Evans blue dye extravasation was expressed as mean ± SEM and % inhibition for the test article groups was normalized to the cromolyn positive control. For the CIA model paw measurements (left and right ankle diameter) were taken for each individual animal and averaged. The mean data from each group was plotted and either the AUC(day 11–18) or % inhibition on day 18 was calculated. Data is expressed as mean ± SEM of each group with n = 6–12. […]

COc1ccc2c(c1)c(CC(=O)O)c(C)n2C(=O)c1ccc(Cl)cc1 [indomethacin, reference compound]
MIP-1α in the paw [1]: significantly inhibited
inhibition of paw swelling [2]: 82%

COc1cc(Nc2ncc(F)c(Nc3ccc4c(n3)N(COP(=O)(O)O)C(=O)C(C)(C)O4)n2)cc(OC)c1OC [fostamatinib]
patients with durable platelet responses [3]: 8/16

NCCNc1ncc(C(N)=O)c(Nc2cccc(C(F)(F)F)c2)n1 [Syk II inhibitor, reference compound]
IC50 [4]: 2240 ± 290 nM

O=C(O)c1cc(=O)c2c(OCC(O)COc3cccc4oc(C(=O)O)cc(=O)c34)cccc2o1 [cromolyn, reference compound]
inhibition of skin edema compared to vehicle control group [5]: 79%
